Legend:
[1] = molecular target: T1, Serine/threonine-protein kinase 3 (Homo sapiens) (UniProt Q13188); test: Selectivity interaction (Kinase panel (KiNativ target engagement assay in Jurkat cells)) EUB0001635a STK3; assay type: cell-based; conditions: Selectivity number of off-targets 0.0, Selectivity number of targets 233.0, Source Knowledge https://www.sciencedirect.com/science/article/pii/S2451945619300674?via%3Dihub, at 1 µM
T1 sequence (whole entry): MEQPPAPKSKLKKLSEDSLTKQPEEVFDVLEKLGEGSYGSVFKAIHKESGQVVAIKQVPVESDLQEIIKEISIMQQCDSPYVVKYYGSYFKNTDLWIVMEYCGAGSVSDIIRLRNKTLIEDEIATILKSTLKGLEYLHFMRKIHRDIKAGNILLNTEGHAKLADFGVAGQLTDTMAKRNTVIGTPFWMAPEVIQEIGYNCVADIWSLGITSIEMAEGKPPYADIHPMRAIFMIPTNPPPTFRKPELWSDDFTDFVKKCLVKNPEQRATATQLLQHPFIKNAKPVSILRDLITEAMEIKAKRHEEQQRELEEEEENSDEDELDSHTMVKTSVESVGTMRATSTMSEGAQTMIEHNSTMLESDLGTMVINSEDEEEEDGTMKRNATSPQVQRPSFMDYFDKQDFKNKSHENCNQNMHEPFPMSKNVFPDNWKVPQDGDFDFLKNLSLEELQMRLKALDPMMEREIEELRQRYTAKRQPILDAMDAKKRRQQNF

[2] = molecular target: T2, cAMP-dependent protein kinase catalytic subunit PRKX (Homo sapiens) (UniProt P51817); test: Selectivity interaction (KinomeScan (DiscoverX)) EUB0000229b PRKX; conditions: at 10 µM
T2 sequence (whole entry): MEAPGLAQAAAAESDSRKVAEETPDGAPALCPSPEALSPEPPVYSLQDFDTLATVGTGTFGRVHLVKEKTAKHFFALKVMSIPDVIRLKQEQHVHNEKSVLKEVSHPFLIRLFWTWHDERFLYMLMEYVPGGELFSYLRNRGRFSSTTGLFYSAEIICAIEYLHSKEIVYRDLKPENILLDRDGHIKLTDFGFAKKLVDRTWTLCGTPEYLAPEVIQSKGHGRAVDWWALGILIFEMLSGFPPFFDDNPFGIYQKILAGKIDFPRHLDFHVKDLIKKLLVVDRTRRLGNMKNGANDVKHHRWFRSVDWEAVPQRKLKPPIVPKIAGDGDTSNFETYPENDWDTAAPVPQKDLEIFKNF

[3] = molecular target: T3, Phosphatidylinositol 5-phosphate 4-kinase type-2 gamma (Homo sapiens) (UniProt Q8TBX8); test: Selectivity interaction (KinomeScan (DiscoverX)) EUB0000229b PIP4K2C; conditions: at 10 µM
T3 sequence (whole entry): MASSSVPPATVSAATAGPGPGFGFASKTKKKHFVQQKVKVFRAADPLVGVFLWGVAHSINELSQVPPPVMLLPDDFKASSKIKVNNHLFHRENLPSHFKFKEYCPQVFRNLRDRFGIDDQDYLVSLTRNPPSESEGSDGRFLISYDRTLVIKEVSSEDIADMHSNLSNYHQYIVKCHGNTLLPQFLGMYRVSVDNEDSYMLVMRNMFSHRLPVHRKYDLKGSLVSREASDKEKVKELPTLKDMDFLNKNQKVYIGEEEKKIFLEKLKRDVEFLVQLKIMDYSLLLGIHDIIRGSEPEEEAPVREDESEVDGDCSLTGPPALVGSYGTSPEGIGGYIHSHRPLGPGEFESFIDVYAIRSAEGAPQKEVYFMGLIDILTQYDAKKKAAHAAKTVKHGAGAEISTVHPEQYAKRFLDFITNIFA

[4] = molecular target: Phosphatidylinositol 3-kinase catalytic subunit type 3 (Homo sapiens, UniProt Q8NEB9); test: Selectivity interaction (KinomeScan (DiscoverX)) EUB0000229b PIK3C3; conditions: at 10 µM
Phosphatidylinositol 3-kinase catalytic subunit type 3, sequence (Q8NEB9 whole entry): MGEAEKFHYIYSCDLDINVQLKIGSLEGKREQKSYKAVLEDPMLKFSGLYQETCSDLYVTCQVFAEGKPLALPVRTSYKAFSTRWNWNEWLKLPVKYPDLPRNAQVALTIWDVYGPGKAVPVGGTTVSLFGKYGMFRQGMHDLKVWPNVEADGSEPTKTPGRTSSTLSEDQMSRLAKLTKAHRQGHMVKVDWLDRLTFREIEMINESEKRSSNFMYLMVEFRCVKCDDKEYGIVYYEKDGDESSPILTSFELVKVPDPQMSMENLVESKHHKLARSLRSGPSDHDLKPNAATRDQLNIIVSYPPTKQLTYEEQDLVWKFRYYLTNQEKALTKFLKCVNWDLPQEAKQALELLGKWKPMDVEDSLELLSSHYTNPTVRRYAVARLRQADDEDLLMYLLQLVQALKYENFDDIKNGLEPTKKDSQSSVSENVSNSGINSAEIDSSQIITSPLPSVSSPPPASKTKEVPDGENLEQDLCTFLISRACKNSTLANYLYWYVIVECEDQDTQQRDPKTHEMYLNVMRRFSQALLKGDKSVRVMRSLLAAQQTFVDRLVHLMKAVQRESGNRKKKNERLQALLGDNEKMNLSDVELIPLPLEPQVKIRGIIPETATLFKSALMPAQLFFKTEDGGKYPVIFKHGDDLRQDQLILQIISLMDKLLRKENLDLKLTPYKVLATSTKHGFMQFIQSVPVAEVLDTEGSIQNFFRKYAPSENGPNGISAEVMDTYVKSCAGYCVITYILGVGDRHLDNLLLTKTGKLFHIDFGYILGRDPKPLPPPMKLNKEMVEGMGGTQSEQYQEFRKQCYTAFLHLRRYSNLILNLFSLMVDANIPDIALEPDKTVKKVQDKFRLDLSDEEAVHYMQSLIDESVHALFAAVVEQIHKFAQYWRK

[5] = molecular target: Serine/threonine-protein kinase N1 (Homo sapiens, UniProt Q16512); test: Selectivity interaction (KinomeScan (DiscoverX)) EUB0000229b PKN1; conditions: at 10 µM
Serine/threonine-protein kinase N1, sequence (Q16512 2-942 limits assumed): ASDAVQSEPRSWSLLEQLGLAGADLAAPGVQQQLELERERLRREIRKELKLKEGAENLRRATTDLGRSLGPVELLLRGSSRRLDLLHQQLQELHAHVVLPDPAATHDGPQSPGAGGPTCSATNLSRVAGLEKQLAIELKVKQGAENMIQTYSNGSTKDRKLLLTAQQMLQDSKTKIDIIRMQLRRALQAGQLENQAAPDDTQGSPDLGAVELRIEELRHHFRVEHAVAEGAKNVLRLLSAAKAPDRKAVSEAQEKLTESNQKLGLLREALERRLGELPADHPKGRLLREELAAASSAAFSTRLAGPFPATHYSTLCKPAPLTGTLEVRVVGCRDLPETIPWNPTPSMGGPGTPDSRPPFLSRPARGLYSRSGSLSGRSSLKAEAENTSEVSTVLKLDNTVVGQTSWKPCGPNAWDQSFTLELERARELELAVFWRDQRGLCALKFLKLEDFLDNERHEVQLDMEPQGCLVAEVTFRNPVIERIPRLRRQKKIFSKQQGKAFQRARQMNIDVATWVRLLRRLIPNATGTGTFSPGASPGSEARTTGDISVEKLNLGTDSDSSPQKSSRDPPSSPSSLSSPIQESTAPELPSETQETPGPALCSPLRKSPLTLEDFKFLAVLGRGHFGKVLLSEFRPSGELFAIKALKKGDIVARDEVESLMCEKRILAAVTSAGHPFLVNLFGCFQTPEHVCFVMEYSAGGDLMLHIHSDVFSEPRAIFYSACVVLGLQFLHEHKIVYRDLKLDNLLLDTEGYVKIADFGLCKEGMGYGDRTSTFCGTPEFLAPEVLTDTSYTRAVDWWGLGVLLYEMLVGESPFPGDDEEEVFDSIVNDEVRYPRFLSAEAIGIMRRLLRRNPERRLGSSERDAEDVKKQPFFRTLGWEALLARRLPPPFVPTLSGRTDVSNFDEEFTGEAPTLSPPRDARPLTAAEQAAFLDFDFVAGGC

[6] = molecular target: Mitogen-activated protein kinase 6 (Homo sapiens) (UniProt Q16659); test: Selectivity interaction (KinomeScan (DiscoverX)) EUB0000595a MAPK6; conditions: at 10 µM
Mitogen-activated protein kinase 6 (Homo sapiens), sequence (Q16659 whole entry): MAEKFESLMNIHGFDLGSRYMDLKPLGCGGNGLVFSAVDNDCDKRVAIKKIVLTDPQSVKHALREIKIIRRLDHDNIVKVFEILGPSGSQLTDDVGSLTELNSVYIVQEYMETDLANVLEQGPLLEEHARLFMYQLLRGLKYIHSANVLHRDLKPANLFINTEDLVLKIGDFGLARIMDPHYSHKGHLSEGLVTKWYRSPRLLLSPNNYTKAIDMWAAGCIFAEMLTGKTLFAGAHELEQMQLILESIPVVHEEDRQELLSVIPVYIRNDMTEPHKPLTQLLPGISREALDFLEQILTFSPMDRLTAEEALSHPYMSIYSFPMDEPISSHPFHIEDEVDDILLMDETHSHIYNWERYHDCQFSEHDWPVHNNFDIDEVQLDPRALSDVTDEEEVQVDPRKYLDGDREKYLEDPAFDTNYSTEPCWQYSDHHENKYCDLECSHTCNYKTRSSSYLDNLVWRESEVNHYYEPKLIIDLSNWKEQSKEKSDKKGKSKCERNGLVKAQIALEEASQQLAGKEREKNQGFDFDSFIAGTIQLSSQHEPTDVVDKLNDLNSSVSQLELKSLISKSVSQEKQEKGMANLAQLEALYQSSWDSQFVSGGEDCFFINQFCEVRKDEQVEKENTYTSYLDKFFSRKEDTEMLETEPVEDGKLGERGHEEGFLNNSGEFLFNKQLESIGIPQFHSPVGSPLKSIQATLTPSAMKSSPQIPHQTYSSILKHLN

[7] = molecular target: Dual specificity protein kinase CLK3 (Homo sapiens, UniProt P49761); conditions: at 10 µM
Dual specificity protein kinase CLK3, sequence (P49761 whole entry, looked up): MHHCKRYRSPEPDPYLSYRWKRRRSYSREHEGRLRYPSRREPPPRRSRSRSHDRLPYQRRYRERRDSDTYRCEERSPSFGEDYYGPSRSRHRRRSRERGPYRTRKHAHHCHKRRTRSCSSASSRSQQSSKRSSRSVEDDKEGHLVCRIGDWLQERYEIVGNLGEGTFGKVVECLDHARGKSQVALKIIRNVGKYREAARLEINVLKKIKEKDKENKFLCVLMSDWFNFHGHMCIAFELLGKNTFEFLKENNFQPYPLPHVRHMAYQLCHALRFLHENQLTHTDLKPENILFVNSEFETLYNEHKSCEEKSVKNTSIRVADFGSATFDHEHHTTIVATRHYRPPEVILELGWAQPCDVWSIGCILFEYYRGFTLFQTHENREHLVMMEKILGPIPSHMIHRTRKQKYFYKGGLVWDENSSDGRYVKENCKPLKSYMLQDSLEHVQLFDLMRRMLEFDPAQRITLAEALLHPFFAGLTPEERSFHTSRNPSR

[8] = molecular target: Mast/stem cell growth factor receptor Kit (Homo sapiens, UniProt P10721)
[9] = molecular target: Tyrosine-protein kinase Blk (Homo sapiens) (UniProt P51451); test: Selectivity interaction (SelectScreen profiling (Invitrogen)) EUB0000607a BLK; conditions: at 2 µM
Tyrosine-protein kinase Blk (Homo sapiens), sequence (P51451 2-505 limits assumed): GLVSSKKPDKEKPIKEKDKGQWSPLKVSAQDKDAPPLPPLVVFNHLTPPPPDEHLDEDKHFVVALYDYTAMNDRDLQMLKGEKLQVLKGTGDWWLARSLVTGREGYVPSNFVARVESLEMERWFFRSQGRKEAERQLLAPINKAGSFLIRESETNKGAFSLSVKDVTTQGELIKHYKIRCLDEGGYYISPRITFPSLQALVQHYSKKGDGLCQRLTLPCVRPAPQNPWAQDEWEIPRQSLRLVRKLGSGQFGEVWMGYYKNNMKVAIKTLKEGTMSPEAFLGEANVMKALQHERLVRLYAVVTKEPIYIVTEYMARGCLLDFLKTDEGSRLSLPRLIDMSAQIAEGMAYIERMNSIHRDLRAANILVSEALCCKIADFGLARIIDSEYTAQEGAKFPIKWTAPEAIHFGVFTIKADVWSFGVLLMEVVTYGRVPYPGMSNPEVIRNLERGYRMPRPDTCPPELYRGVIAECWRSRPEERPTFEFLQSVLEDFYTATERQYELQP

[10] = molecular target: Mitogen-activated protein kinase kinase kinase 9 (Homo sapiens) (UniProt P80192); test: Selectivity interaction (SelectScreen profiling (Invitrogen)) EUB0000607a MAP3K9; conditions: at 2 µM
Mitogen-activated protein kinase kinase kinase 9 (Homo sapiens), sequence (P80192 whole entry, looked up): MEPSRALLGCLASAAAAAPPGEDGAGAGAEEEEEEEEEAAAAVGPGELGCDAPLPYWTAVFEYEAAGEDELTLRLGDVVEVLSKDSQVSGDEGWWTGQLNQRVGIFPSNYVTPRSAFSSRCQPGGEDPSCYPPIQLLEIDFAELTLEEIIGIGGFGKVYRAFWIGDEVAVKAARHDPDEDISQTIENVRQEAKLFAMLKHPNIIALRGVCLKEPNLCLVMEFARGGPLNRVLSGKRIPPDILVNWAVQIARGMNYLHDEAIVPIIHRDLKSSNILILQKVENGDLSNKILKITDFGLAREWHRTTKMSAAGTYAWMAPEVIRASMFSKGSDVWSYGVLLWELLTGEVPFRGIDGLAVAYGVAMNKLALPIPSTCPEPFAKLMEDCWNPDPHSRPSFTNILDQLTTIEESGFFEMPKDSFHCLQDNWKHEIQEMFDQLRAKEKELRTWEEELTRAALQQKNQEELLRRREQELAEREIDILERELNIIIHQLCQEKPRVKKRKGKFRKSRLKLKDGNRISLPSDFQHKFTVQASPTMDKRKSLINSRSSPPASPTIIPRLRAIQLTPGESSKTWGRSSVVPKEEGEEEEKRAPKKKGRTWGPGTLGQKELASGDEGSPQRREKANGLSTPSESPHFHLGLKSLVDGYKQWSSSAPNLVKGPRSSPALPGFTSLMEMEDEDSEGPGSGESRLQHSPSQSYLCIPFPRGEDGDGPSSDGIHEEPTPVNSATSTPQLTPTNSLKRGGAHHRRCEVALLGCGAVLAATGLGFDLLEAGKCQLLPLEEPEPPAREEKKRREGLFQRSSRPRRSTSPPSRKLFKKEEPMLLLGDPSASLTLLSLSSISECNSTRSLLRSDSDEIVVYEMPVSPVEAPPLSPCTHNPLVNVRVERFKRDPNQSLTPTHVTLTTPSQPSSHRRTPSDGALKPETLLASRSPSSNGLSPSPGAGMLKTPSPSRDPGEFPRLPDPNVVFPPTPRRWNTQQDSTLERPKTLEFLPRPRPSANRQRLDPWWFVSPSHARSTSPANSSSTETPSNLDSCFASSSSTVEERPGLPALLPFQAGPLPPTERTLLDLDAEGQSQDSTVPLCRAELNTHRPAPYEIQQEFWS

[11] = molecular target: T4, Inhibitor of nuclear factor kappa-B kinase subunit epsilon (Homo sapiens) (UniProt Q14164); test: Selectivity interaction (ActivX KiNativ screen (kinase selectivity in THP-1 cell lysates)) EUB0000639a IKBKE; assay type: subcellular; conditions: lysate, at 1 µM
T4 sequence (whole entry): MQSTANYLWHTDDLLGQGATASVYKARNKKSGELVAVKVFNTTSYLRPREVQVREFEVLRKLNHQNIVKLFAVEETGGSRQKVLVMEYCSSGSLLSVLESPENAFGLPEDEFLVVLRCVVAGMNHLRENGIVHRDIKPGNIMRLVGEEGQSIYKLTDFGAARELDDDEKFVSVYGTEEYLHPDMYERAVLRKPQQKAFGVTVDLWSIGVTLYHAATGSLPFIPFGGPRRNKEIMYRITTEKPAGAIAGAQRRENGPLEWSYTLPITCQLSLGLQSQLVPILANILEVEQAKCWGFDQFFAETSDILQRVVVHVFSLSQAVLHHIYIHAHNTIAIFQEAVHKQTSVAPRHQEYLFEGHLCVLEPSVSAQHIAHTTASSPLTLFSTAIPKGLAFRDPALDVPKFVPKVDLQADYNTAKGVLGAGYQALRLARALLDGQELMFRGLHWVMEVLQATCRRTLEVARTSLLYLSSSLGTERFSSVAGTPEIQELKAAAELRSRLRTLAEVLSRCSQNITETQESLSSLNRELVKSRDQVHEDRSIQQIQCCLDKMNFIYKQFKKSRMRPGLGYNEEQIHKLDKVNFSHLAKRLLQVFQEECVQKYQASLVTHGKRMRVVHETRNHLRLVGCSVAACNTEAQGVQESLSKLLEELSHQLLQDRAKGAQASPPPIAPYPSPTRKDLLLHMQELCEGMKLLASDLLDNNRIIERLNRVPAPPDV

[12] = molecular target: Serine/threonine-protein kinase Nek7 (Homo sapiens) (UniProt Q8TDX7); conditions: at 10 µM
Serine/threonine-protein kinase Nek7 (Homo sapiens), sequence (Q8TDX7 whole entry, looked up): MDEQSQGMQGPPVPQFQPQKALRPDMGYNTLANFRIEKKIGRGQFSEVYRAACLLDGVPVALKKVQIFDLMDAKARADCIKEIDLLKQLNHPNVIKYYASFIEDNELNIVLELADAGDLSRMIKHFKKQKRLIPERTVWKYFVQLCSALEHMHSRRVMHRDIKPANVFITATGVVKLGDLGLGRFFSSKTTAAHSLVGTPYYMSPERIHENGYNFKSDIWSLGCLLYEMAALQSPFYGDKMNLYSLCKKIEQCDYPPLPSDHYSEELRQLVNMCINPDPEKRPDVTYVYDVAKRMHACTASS

C=CC(=O)Nc1ccc(C(=O)Nc2[nH]nc3c2CN(C(=O)N[C@H](CN(C)C)c2ccccc2)C3(C)C)cc1
% of engagement [1]: 1%

COc1cc(N(C)c2ccnc3ccc(C(F)(F)F)cc23)cc(OC)c1OC
% binding [2]: 72% | % binding [3]: 38% | % binding [4]: 93% | % binding [5]: 81%

COCC(=O)NC/C=C/c1ccc2ncnc(Nc3ccc(Oc4ccc(C)nc4)c(C)c3)c2c1 [CP-724714]
% of control [6]: 100% | % of control [7]: 100%

CCc1cccc(CC)c1NC(=O)c1nn(C)c2c1CCc1cnc(Nc3ccc(C(=O)NC4CCN(C)CC4)cc3OC(F)(F)F)nc1-2
IC50 [8]: > 10 µM

CNC(=O)Nc1ccc(-c2nc(N3CC4CCC(C3)O4)c3cnn(C4CCC5(CC4)OCCO5)c3n2)cc1
% of inhibition [9]: 1% | % of inhibition [10]: 11%

CC[C@@H]1[C@H](F)C(=O)N[C@@H]1COc1nccc2cc(C(N)=O)c(OC)cc12 [ZIMLOVISERTIB]
% of inhibition [11]: 10%

CCN(CC)CCCCNc1ncc2cc(-c3cc(OC)cc(OC)c3)c(NC(=O)NC(C)(C)C)nc2n1
% of control [12]: 100%

Source: ChEMBL document CHEMBL5465560, “Selectivity Literature for EUbOPEN Chemogenomic Library” (2024)
